# Laboratory results as given in patent publication US10822317B2, “Methods and compositions for wound healing” (QBiotics Limited, priority 2013, dated 2020).
# How the values were obtained:
# HaCaT cells [1] = test: HaCaT scratch repopulation with Mitomycin C (migration study); format: cell-based, human; conditions: with 1 μg/mL Mitomycin C; 0.001 to 1.0 μg/mL; p<0.05
# [2] = test system: TGF-β1-stimulated dermal fibroblasts; test: Differentiation of adult dermal fibroblasts into myofibroblasts (α-SMA expression); format: cell-based, human
# Description: The effects of Compounds […] and 37 on dermal fibroblast differentiation to myofibroblasts was examined by the extent of α-SMA expression by TGF-βi-stimulated dermal fibroblasts.
# Following trypsinization, fibroblasts were seeded in 8-well, Permanoxchamber slides (VWR International) in DMEM medium, containing antibiotics, 2 mM L-glutamine and 10% foetal calf serum (250 μL, all purchased from Invitrogen); at a cell density of 2.5×10^4 cells/well and maintained at 37° C. in 5% CO2/95% air for 48 h.
# At 48 hr, fibroblasts were growth-arrested in serum-free DMEM for 48 hr and then replaced with serum-free DMEM (250 μL), containing Compounds 1 or 37 at concentrations of 0, 0.001, 0.01, 0.1, 1.0 and 10.0 μg/mL (3 wells/concentration/compound) and TGF-β1 (10 ng/ml, Peprotech). Fibroblasts were maintained at 37° C. in 5% CO2/95% air for 72 hr.
# At 72 hr, chamber slide wells were washed with PBS (×1, 250 μL) and fixed in 4% paraformaldehyde (100 μL/well) for 10 min. The chamber slide wells were then washed again with PBS (×1, 250 μl), treated with 0.1% Triton X-100 in PBS (100 μL, Sigma) for 5 min and re-washed with PBS (×1, 250 μL). Wells were blocked with 1% BSA in PBS (250 μL, Sigma) for 1 h and washed (×3) in 0.1% BSA/PBS.
# Wells were incubated with monoclonal mouse anti-human α-SMA, clone 1A4 (1:100, 150 ul, Sigma) at 4° C. overnight, washed (×6) in 0.1% BSA/PBS and incubated with Alexa Fluor 488 goat anti-mouse IgG antibody (1:1000, 250 μL, Invitrogen), at room temperature for 1 h, under darkness. Chamber slides were washed (×6) in 0.1% BSA/PBS and counterstained with Hoescht 33258 solution for 30 min under darkness (1:2000, 250 μL, Sigma). Chamber were subsequently removed for slides and treated with Fluorsave (Santa Cruz) for 10 min under darkness. Slides were viewed by fluorescence microscopy (Leica Microsystem), with digital images being capturedat ×200 magnification. Digital images were processed using HC Image J Software.
# [3] = test system: immortalised human keratinocyte cells (HaCaT); test: Scratch repopulation and closure with HaCaT; format: cell-based; conditions: 48 hours; for % of scratch wound area remaining open after treatment: ± standard error
# Description: The ability of immortalised human keratinocyte cells (HaCaT) to migrate across a scratch wound made in a confluent monolayer following treatment with either Compound 1 or Compound 37 was determined by the following method.
# Trypsinised HaCaT cells were seeded at a cell density of 7.4×10^4 cells/mL in 24-well BD Falcon flat-bottomed, tissue culture plates (VWR International, UK) in 1 mL Dulbecco's Modified Eagle Medium (DMEM), supplemented with L-glutamine (2 mM), antibiotics (100 U/mL penicillin G sodium, 100 μg/mL streptomycin sulphate and 0.25 μg/mL amphotericin B); and 10% foetal calf serum (all Invitrogen Ltd., UK) to give a cell density of 7.4×10^4 cells seeded in each well. The cells were then maintained at 37° C. in a 5% CO2/95% air atmosphere overnight. The following morning, the 10% foetal calf serum-containing DMEM was replaced with serum-free DMEM and the HaCaT cells were subsequently serum-starved in DMEM for 48 hr.
# After 48 hr, the serum-free DMEM was removed and a single scratch ‘wound’ made with a sterile pipette across each cell layer. Following washing twice in 1 mL PBS, Compound 1- or Compound 37-containing medium (1 mL) was added to each well. This medium consisted of DMEM, supplemented with L-glutamine (2 mM), antibiotics (as above) and 1% foetal calf serum, in addition to Compound 1 or Compound 37 at final concentrations of 0, 0.001, 0.01, 0.1, 1.0, 10 or 100 μg/mL. There were three replicate wells per concentration for each compound.
# The HaCaT cultures were maintained at 37° C. in a 5% CO2/95% air atmosphere and the repopulation of the denuded ‘wound’ areas monitored by Time-Lapse Confocal Microscopy (Leica TCS SP5 Confocal Microscope; Leica Microsystems UK Ltd., UK) at 100× magnification, with digital images captured at fixed positions every 20 min over a 48 h period. The digital image sequences were exported and prepared as .avi movie files, using LAS AF Software (Leica Microsystems). The rates of HaCaT wound closure in vitro were quantified using ImageJ Software (ImageJ 1.37v; http://rsb.info.nih.gov/ij/). The data was analysed by One Way Analysis of Variance with post-test Tukey analysis. Each experiment was performed on 3 separate occasions.
# HaCaT cells [4] = test: HaCaT proliferation (MTT); format: cell-based, human; set-up: dose or concentration left out as unconfirmed; conditions: 24, 48, 120 and 168 hr; p<0.01
# Source text: The proliferation experiment assessed the effects of the two compounds on HaCaT proliferation (as measured by MTT) in the culture system at 4 time periods (24, 48, 120 and 168 hr).
compound,measurement,setting,value
"CC=C(C)C(=O)OC1C(C)C2(O)C(C(O)C3(CO)OC3C3(O)C(=O)C(C)=CC32)C2C(C)(C)C12OC(=O)C(C)CC (centres unmarked) [Compound 37, 12-tigloyl-13-(2-methylbutanoyl)-5,6-epoxy-4,5,9,12,13,20-hexahydroxy-1-tigliaen-3-one]",scratch repopulation and closure (migration study),HaCaT cells [1],enhanced
same,differentiation of TGF-β1-treated adult dermal fibroblasts into myofibroblasts,"[2]; 0.001 to 10.0 μg/mL, 72 hr",affected differentiation into myofibroblasts in a concentration-dependent manner
same,myofibroblast morphology,[2]; 0.1 to 1.0 μg/mL,subtle alterations in myofibroblast morphology
same,α-SMA stress fibre formation and polygonal morphology development,"[2]; TGF-β1 10 ng/ml, 72 hr, 10 μg/mL",disruptive effect on α-SMA stress fibre formation and polygonal morphology development
same,% of scratch wound area remaining open after treatment,[3]; 0.001 μg/ml,4.3 ± 4.1%
same,% of scratch wound area remaining open after treatment,[3]; 0.01 μg/ml,0.9 ± 1.5%
same,% of scratch wound area remaining open after treatment,[3]; 0.1 μg/ml,2.2 ± 3.4%
same,% of scratch wound area remaining open after treatment,[3]; 1.0 μg/ml,30.0 ± 5.3%
same,% of scratch wound area remaining open after treatment,[3]; 10 μg/ml,37.1 ± 7.1%
same,rate of scratch closure compared to the control treatment,"[3]; 0.001, 0.01, 0.1 and 1.0 μg/ml, p<0.01",increased
same,proliferation of HaCaT cells (MTT) vs control with no compound,HaCaT cells [4],increasing proliferation
